One test concerns C-PVR cells. Briefly: CyQuant cell proliferation assay in human patient derived primary cultures of PVR. The format is cell-based. As to the method:
Twelve candidate drugs were tested at 2 concentrations at 72 hours for their effects on proliferation and cytotoxicity in C-PVR cells. […] Each anti-proliferative drug was tested at 2 concentrations determined by using the IC50 of each drug. The data was expressed as percent cell inhibition.
The cells were washed and the CyQuant Direct nucleic acid stain was added and incubated at 37 degrees in the incubator. Fluorescence read outs were measured at wavelengths as instructed in the protocol.

The next test concerns human PVR explants. Briefly: Ex vivo human PVR explant outgrowth and sprouting model. The format is cell-based. As to conditions: for total branch length of outgrowths: vehicle 167 mm; for sprouting distance from the explant (in words): 3-10 days.
[1] abbreviates: Homo sapiens, 72 hours, C-PVR cells.
Setting [2] is: Homo sapiens, 5 μM, 72 hours, C-PVR cells.

Consider `COc1cccc2c1C(=O)c1c(O)c3c(c(O)c1C2=O)C[C@@](O)(C(C)=O)C[C@@H]3O[C@H]1C[C@H](N)[C@H](O)[C@H](C)O1` [Daunorubicin], for which the reduction in proliferation was determined as 50% in the test with C-PVR cells (15 nM, 72 hours, C-PVR cells) and 53% with C-PVR cells (30 nM, 72 hours, C-PVR cells).

Turning to `O=C1CN=C(c2ccc[nH]2)c2cc(Cl)ccc2N1` [RUNX1 inhibitor, Ro5-3335], in the test on C-PVR cells (150 μM alone, 48 and 72 hours), the “inhibition of growth of C-PVR cells (in words)” value is “efficacious at inhibiting growth of C-PVR cells”.

Take `CC[C@@]1(O)C(=O)OCc2c1cc1n(c2=O)Cc2cc3c(CN(C)C)c(O)ccc3nc2-1` [Topotecan, topotecan]: the decrease in proliferation with C-PVR cells (40 nM, 72 hours, C-PVR cells) was 54%; in the test with C-PVR cells (80 nM, 72 hours, C-PVR cells), 53%. Also, in the test with C-PVR cells (concentrations of 40 nM and 80 nM, FIG. 1B), the “inhibition of proliferation of C-PVR cells (in words)” value was “effectively inhibited the proliferation of C-PVR cells”. The “total branch length of outgrowths” value with human PVR explants (40 nM (so in the source)) is recorded as 34 mm. Besides, in the test with human PVR explants (80 nM alone), the “sprouting distance from the explant (in words)” value is on record as “statistically significant reduction in sprouting distance”.

Regarding `Cn1c(CCCC(=O)O)nc2cc(N(CCCl)CCCl)ccc21` [bendamustine], in the test with C-PVR cells (setting [1]), 1 µM produced 25% inhibition. Moreover, the inhibition (usually the relative decrease from the control value, in per cent) at 5 µM in the test on C-PVR cells (setting [2]) was 20%.

As to `COC(=O)N[C@H](C(=O)N1CCC[C@H]1c1ncc(-c2ccc(-c3ccc(-c4cnc([C@@H]5CCCN5C(=O)[C@@H](NC(=O)OC)C(C)C)[nH]4)cc3)cc2)[nH]1)C(C)C` [daclatsvir], in the test on C-PVR cells (5 μM, 72 hours, C-PVR cells), the “inhibition of cell proliferation” value worked out at 16%.

In the test on C-PVR cells (concentration not given, 72 hours, C-PVR cells), `Nc1cccc2c1CN(C1CCC(=O)NC1=O)C2=O` (stereo not shown) [lenalidomide] returned an inhibition of proliferation of 24%.

Take `CN1CCN(c2c(F)cc3c(=O)c(C(=O)O)cn4c3c2OCN4C)CC1` [marbofloxacin]: in the test on C-PVR cells (setting [2]), the inhibition at 5 µM is 30%.

For `N[C@@H](Cc1ccc(N(CCCl)CCCl)cc1)C(=O)O` [melphalan, 4-[bis(2-chloroethyl)amino]-L-phenylalanine], the “reduction of cell proliferation” value with C-PVR cells (60 μM, 72 hours, C-PVR cells) was found to be 83%. The same compound displayed an inhibition at 30 µM in the test on C-PVR cells (Homo sapiens, 30 μM, 72 hours, C-PVR cells) of 74%. Further, in the test with C-PVR cells (concentrations of 30 nM and 60 nM (so in the source), FIG. 1A), the “inhibition of proliferation of C-PVR cells (in words)” value was “effectively inhibited the proliferation of C-PVR cells”. Moreover, the “sprouting distance from the explant (in words)” value in the test with human PVR explants (30 μM alone) is “statistically significant reduction in sprouting distance”. Besides, the “total branch length of outgrowths” value in the test with human PVR explants (30 μM) stood at 27.5 mm.

`Oc1ccc(C=Cc2cc(O)cc(O)c2)cc1` [resveratrol]: in the test with C-PVR cells (setting [2]), 5 µM produced 28% inhibition.

On to `CC(C)[C@H](O)C(=O)N[C@@H](C)C(=O)N[C@@H]1C(=O)N(C)CCc2ccccc21` [semagacestat], for which testing at 1 µM with C-PVR cells (setting [1]) gave an inhibition of 28%. Also, the inhibition at 5 µM in the test on C-PVR cells (setting [2]) was determined as 30%.

In the test with C-PVR cells (setting [2]), `Cc1cn([C@H]2C=C[C@@H](CO)O2)c(=O)[nH]c1=O` [stavudine] gave an inhibition at 5 µM of 19%.

The values above are taken from patent publication US12691110B2 (Massachusetts Eye and Ear Infirmary, priority 2022, dated 2026).
